Data reported in patent US20080214565A1, “Oxazolidinone Derivatives as Antimicrobials” (priority 2003, published 2008).
≈ marks a conversion by molar mass, not a printed value.

Assays:
[1] = test system: Ent. faecalis ATCC 29212; assay: MIC by agar incorporation method, E. faecalis 29212; type: cell-based, Enterococcus faecalis; conditions: in vitro, 18 hours
From the text: (§1) The compounds of the invention display antibacterial activity when tested by the agar incorporation method. The following minimum inhibitory concentrations (μg/ml) were obtained for representative compounds of the invention which are given below in the following table.
(§2) 1) S. aureus ATCC 25923—Staphylococus aureus ATCC 25923 2) MRSA 15187—Methicillin Resistant Staphylococcus aureus 3) Ent. faecalis ATCC 29212—Enterococcus faecalis ATCC 29212 4) Ent. faecium 6A—Enterococcus faecium 6A Van®, Cipro® 5) Strep. pne. ATCC 6303—Streptococcus pneumoniae ATCC 6303 6) Strep. pyog. ATCC 19615—Streptococcus pyogenes 7) S. epidermidis—Staphylococcus epidermidis ATCC 12228
(§3) Briefly, the compounds were dissolved in dimethylsulfoxide and doubling dilution of the compounds were incorporated into Meer Hilton agar before solidification. Inoculum was prepared by suspending 4 to 5 colonies into 5 ml of normal saline solution and adjusting the turbility to 0.5 Macfarland turbidity standard tables (1.5×10^8 CFU/ml), after appropriate dilutions, 10^4 CFU/spot was transferred into the surface of dried plate and incubated for 18 hours (24 hours for MRSN studies). The concentration showing no growth of the inoculated culture was recorded as the MIC. Appropriate ATCC standard strains were simultaneously tested and result recorded only when the MIC's against standard antibiotics were within the acceptable range.

[2] = test system: S. aureus ATCC 25923; assay: MIC by agar incorporation method, S. aureus ATCC 25923; type: cell-based, Staphylococus aureus; conditions: in vitro, 18 hours
From the text: as §1, §2, §3

[3] = test system: MRSA 562; assay: MIC by agar incorporation method, MRSA 562; type: cell-based, Methicillin Resistant Staphylococcus aureus; conditions: in vitro, 24 hours
Description: as §1, §3

[4] = test system: VRE 6A (Ent. faecium 6A); assay: MIC by agar incorporation method, VRE 6A; type: cell-based, Enterococcus faecium; conditions: in vitro, 18 hours
From the text: as §1, §2, §3

[5] = test system: Strep. pne. ATCC 6303; assay: MIC by agar incorporation method, S. pneum 6303; type: cell-based, Streptococcus pneumoniae; conditions: in vitro, 18 hours
From the text: as §1, §2, §3

[6] = test system: MRSA 33; assay: MIC by agar incorporation method, MRSA 33; type: cell-based, Methicillin Resistant Staphylococcus aureus; conditions: in vitro, 24 hours
Description: as §1, §3

[7] = test system: MRSA 15187; assay: MIC by agar incorporation method, MRSA 15187; type: cell-based, Methicillin Resistant Staphylococcus aureus; conditions: in vitro, 24 hours
From the text: as §1, §2, §3

[8] = test system: Strep. pyog. ATCC 19615; assay: MIC by agar incorporation method, S. pyogenes 19615; type: cell-based, Streptococcus pyogenes; conditions: in vitro, 18 hours
From the text: as §1, §2, §3

[9] = test system: S. pneum AB34; assay: MIC by agar incorporation method, S. pneum AB34; type: cell-based, Streptococcus pneumoniae; conditions: in vitro, 18 hours
Description: as §1, §3

| Compound | minimum inhibitory concentration, E. faecalis 29212 [1] [µg/mL] | minimum inhibitory concentration, S. aureus 259231 [2] [µg/mL] | minimum inhibitory concentration, MRSA 562 [3] [µg/mL] | minimum inhibitory concentration, VRE 6A [4] [µg/mL] | minimum inhibitory concentration, S. pneum 6303 [5] [µg/mL] | minimum inhibitory concentration, MRSA 33 [6] [µg/mL] | minimum inhibitory concentration, MRSA 15187 [7] [µg/mL] | minimum inhibitory concentration, S. pyogenes 19615 [8] [µg/mL] | minimum inhibitory concentration, S. pneum AB34 [9] [µg/mL] |
| --- | --- | --- | --- | --- | --- | --- | --- | --- | --- |
| NC(=S)NC[C@H]1CN(c2ccc(N3CCN(Cc4ccc([N+](=O)[O-])o4)CC3)c(F)c2)C(=O)O1 [Compound No. 10, (S)—N-[1-[[3-[3-Fluoro-4-[N-1-[4-{2-furyl-(5-nitro)methyl}]piperazinyl]phenyl]-2-oxo-5-oxazolidinyl]methyl]]-thiourea] | 0.5 (≈ 1.04 µM) | 1 (≈ 2.09 µM) | 1 (≈ 2.09 µM) | 1 (≈ 2.09 µM) | <0.06 | 1 (≈ 2.09 µM) | 1 (≈ 2.09 µM) | 0.25 (≈ 0.522 µM) | 0.24 (≈ 0.502 µM) |
| NC(=S)NC[C@H]1CN(c2ccc(N3CCN(Cc4ccc([N+](=O)[O-])s4)CC3)c(F)c2)C(=O)O1 [Compound No. 12, (S)—N-[1-[[3-[3-Fluoro-4-[N-1-[4-{2-thienyl-(5-nitro)methyl}]piperazinyl]phenyl]-2-oxo-5-oxazolidinyl]methyl]]-thiourea] | 1 (≈ 2.02 µM) | 1 (≈ 2.02 µM) | 0.5 (≈ 1.01 µM) | 0.5 (≈ 1.01 µM) | 0.5 (≈ 1.01 µM) | 1 (≈ 2.02 µM) | 0.5 (≈ 1.01 µM) | <0.25 | 0.5 (≈ 1.01 µM) |
